SMILES	melting point [°C]
COc1cccc2c1CCC1C(=O)N(C(C)c3ccccc3)C(=O)C21 (stereo not drawn)	101 to 103
CCOC(=O)C1CCc2scnc2C1=O (stereo not drawn)	81 to 82
Nc1ncc(-c2ccc(=O)[nH]n2)c(-c2ccc(Cl)c(Cl)c2)n1	300
O=C1c2cccc3cccc(c23)C(=O)N1CCCCCBr	113 to 115
CCN1C(=O)CCCc2cc(Nc3ncc(Cl)c(Nc4c(F)cccc4C(=O)NC)n3)c(OC)cc21	254 to 256
CCCNC(=S)c1ccc2c(c1)N(C(C)CN(CC)CC)c1ccc(Cl)cc1S2 (racemic)	130
CCOC(=O)c1cnc(N)s1	155 to 158
COc1cccc2oc(=O)c3c4c(ccc3c12)NC(C)(C)C=C4C	247 to 248
CC(C)c1n[nH]c(=O)n1N	172
CC(C)N(CCC(CCN(C)C)(C(N)=O)c1ccccc1)C(C)C (stereo not drawn)	75 to 78
CNC(=O)C(Cc1ccccc1)NC(=O)Nc1n[nH]c(=S)s1 (stereo not drawn)	228
CNC(=O)Cn1nc(-c2ccccc2)c(-c2ccccc2)c(C#N)c1=O	292 to 294
COc1cc(OC)nc(Oc2cccc(Oc3ccccc3)c2C(=O)O)n1	116 to 118
CN(C)CC1CCc2cc(OC(=O)c3ccc(-c4ccccc4)cc3)ccc2C1 (stereo not drawn)	85 to 86
CCCCn1nc2c(N)nc3ncccc3c2c1CC(C)(C)O	232 to 235
N#Cc1c(-c2ccc(Cl)cc2)[nH]c(Br)c1Cl	262 to 263
CC(F)(F)c1cccc(C[C@@H](NC(=O)c2ccc(F)c3ccccc23)[C@@H](O)c2ccc(F)cc2)c1 (racemic)	182 to 183
Cc1ccc(N2CCNCC2)c2c1CC[C@@H](NC(=O)c1ccc(N3CCOCC3)cc1)C2	207 to 210
O=C(O)Cc1cn(C(=O)c2cncs2)c2ccc(Cl)cc12	175 to 180
COC(=O)c1nc(NC(C)=O)sc1-c1ccccc1	224 to 226
CNC1Oc2cc(Cl)cc(-c3ccccc3C)c2O1 (stereo not drawn)	> 250
COc1cc2ncnc(NC3=CC(=O)C4(C(C)C)OC4C3=O)c2cc1OC (stereo not drawn)	188 to 190
Nc1nc(F)cc(Oc2ccc(Cl)cc2)n1	223 to 226
Nc1nc2ccccc2c2c1ncn2CCNC(=O)CCCCC1SCC2NC(=O)NC21 (stereo not drawn)	169
COc1ccc(N2CCOCC2)c2sc(NC(=O)N(C)C3CCCC3)nc12	110 to 125
COc1ccc(C(=O)CSc2ccccc2)cc1	83 to 85

SMILES	melting point [°C]
CN(C)c1cnn(-c2ccccc2)c(=O)c1N	188 to 189
O=C(Nc1cccc(F)n1)c1cc(-c2ccc(Cl)c(Cl)c2)nc2ccccc12	204 to 206
CCC(=NOCc1cccs1)c1cc(Cl)ccc1NS(=O)(=O)C(F)(F)F	53 to 54
COc1nc(NC(=O)NS(=O)(=O)c2ccccc2C(=O)OC(C)C)nc(C(F)(F)F)n1	182 to 185
Cc1nn(-c2ccc(C(F)(F)F)cn2)cc1CCCO	103 to 104
COc1ccc(S(=O)(=O)Nc2cccnc2Nc2ccc(OC(=O)c3ccccc3)cc2)cc1	208 to 210
COC(C)c1c(C(C)C)nc(C(C)C)c(CO)c1-c1ccc(F)cc1 (stereo not drawn)	151 to 153
CC1(N2Cc3cc(CNC(=O)Cc4ccc(Cl)cc4)ccc3C2=O)CCC(=O)NC1=O (stereo not drawn)	230 to 232
O=C(O)C1Cc2c(c(Cl)cc3c(-c4c(F)cccc4F)noc23)O1 (stereo not drawn)	240 to 241
COc1ccc(Nc2nc(-c3ccc(OC)c(OC)c3)cs2)nc1	222 to 225
OC[C@@H]1CNCc2cc3ccc(C(F)(F)F)cc3n21	126 to 127
CC(C)(C)C(O)(Cn1cncn1)C(Cl)=CCl (stereo not drawn)	49 to 52
COC(=O)c1ccc(-c2ccc(OC)c3c2CC(C)(C)O3)cc1	116 to 122
COC(=O)NNC(=O)c1ccc(O)cc1	229 to 230
COc1cc2c(cc1OC)CC(NCC(N)=O)C2	135 to 138
C=COC(=O)N=c1sc2cc(OC(F)(F)F)ccc2n1CCSC(C)=O	173
CC(C)c1ccc(C(=O)C2=C(O)C(=O)N(c3ncc(Sc4ccc([N+](=O)[O-])cc4)s3)C2c2ccc(OC(F)(F)F)cc2)cc1 (stereo not drawn)	238
Cc1noc(NS(=O)(=O)c2ccccc2-c2ccc(-c3ncoc3C)cc2)c1C	86 to 96
Cc1c(SCCCSCCn2c([N+](=O)[O-])cnc2C)ccnc1CNc1ncncc1Cl	119 to 121
NS(=O)(=O)c1ccc(NCC(=O)NC2CCCCC2)cc1	223 to 225
CC(=O)NC1Cc2cccc3cccc(c23)C1	180 to 181
COc1cc2cc(CO)c(CO)c(-c3ccnc(-n4c(=O)cc(C(=O)N5CCN(CCO)CC5)c5ccccc54)c3)c2cc1OC	150 to 153
Cc1nc(C)c(C(C)(O)c2ccsc2)o1 (stereo not drawn)	132 to 133
CCOP(=O)(OCC)C1CCc2c(-n3cccc3)c(C(F)(F)F)cc3[nH]c(=O)c(=O)n1c23 (stereo not drawn)	268
C[Si](C)(C)C#Cc1ccc2c(c1)NC(=O)CO2	142
CC(C)(C)c1cc(-c2ccc(NC(=O)CCCC(=O)O)cc2)cc(C(C)(C)C)c1O	218 to 219

SMILES	melting point [°C]
CCOCC1(F)CCN([C@@H](c2ccc(C(F)(F)F)cc2CN(Cc2cc(C(F)(F)F)cc(C(F)(F)F)c2)c2nnn(C)n2)C(C)C)CC1	95
CC(C)c1c(C(=O)Cl)n(-c2ccc(F)cc2)c(=O)c2ccccc12	113 to 115
CC(C)c1ccccc1Sc1c(O)cc(-c2ccc(-c3cccnc3)cc2)oc1=O	145 to 147
Cc1ccc(N)cc1Nc1nccc(-c2cccnc2)n1	138 to 140
CCOC(=O)Cc1c2cc(F)ccc2n2c(-c3ccc(S(C)=O)cc3)nccc12 (stereo not drawn)	133 to 135
CON1CCC2(CC1)OC(=O)C(c1cc(C)c(C)cc1C)=C2O	199 to 204
CCCn1c(CCOC)nc2c(N)nc3cc(OC4CCN(C(N)=O)CC4)ccc3c21	207 to 208
CCCN(CCC)C(=O)COc1nc(-c2ccccc2)nc(C)c1C	88 to 89
O=C1O[C@H](c2ccccc2)[C@H](c2ccccc2)N[C@H]1Cc1ccccc1C1CCCCC1	159 to 160
N#CN(Cc1ccc([N+](=O)[O-])cc1)C(=O)CCCC(=O)N(C#N)Cc1ccc([N+](=O)[O-])cc1	146 to 148
Cc1nc(N(C)c2ccc(Cl)cc2)sc1-c1ccnc(Nc2ccc(N3CCOCC3)cc2)n1	245 to 246
CCn1nc(-c2ccc(OC)cc2)cc(C(=O)OC)c1=O	76.5 to 77.6
Cc1c(C)c2c(c(C)c1NC(=O)C(C)C)CC(C)(C)O2	136 to 138
CC(C)(C)C(NC(=O)c1cccc(F)c1)Nc1c(Nc2cccnc2Cl)c(=O)c1=O (stereo not drawn)	228 to 229
CCCCCCCCCCCCc1cc(O)ccc1S	75 to 76
Cc1c(Br)c(N2CC[C@H](N(C)C)C2)c2oc(C3CC3)nc2c1C#N	82 to 86
CCCCn1c(C=O)cnc1Cc1c(F)cccc1Cl	88 to 90
O=[N+]([O-])c1ccc(CSSCc2ccc([N+](=O)[O-])cc2)cc1	126
CCCN1CC(O)c2cc(OC)c(OC)c3c2C1Cc1cc(OC)c(OC)cc1-3 (stereo not drawn)	153 to 154
CS(=O)(=O)c1ccc(-n2nc(C(=O)O)cc2-c2ccc(-c3ccco3)cc2)cc1	> 280
O=C(O)CCC(=O)c1ccc(-c2ccc(F)cc2)cc1	174 to 176
COc1ccc(C2CNCc3c(OC)cccc32)cc1OC (stereo not drawn)	106 to 112
CC1CN(C(=O)COc2cc(-c3ccccc3)nc3ccccc23)CC(C)O1 (stereo not drawn)	117
COc1cc(C=C(C#N)C(N)=O)cc(OC)c1OC	128 to 130
OC(CCl)COc1ccccc1OCC(O)CCl (stereo not drawn)	64 to 66
NC1=NC(Cl)N(c2c([N+](=O)[O-])cc([N+](=O)[O-])cc2C(F)(F)F)C(Cl)=C1 (stereo not drawn)	198 to 200

SMILES	melting point [°C]
Oc1cnn(-c2ccc(Cl)cc2Cl)c1	148 to 149
O=C(NC1CC1)c1cccc(-c2cccc3oc(Cc4cccc(C(F)(F)F)c4)cc23)c1	120 to 121
COc1ncnc2nc(-c3ccccc3)cnc12	205 to 207
COCc1nc(C(C)(C)O)c(C(=O)OC)[nH]1	94.5 to 96
CCOC(=O)C(CCCCCc1ccc(Cl)cc1)C(N)=O (stereo not drawn)	110 to 111
COc1ccccc1N1CCN(CCc2c(C)c3ccc(OC)c(OC)c3oc2=O)CC1	146 to 148
CCCn1nnn(-c2cc(OC(C)C)c(CBr)cc2Cl)c1=O	68 to 70
O=[N+]([O-])c1cccc(Oc2cccc3cccnc23)c1	133 to 134
CCCc1c(OCc2ccc(C(=O)O)cc2OC)ccc(C(C)=O)c1O	248 to 250
COC(=O)CN1C(=O)c2ccc(F)cc2S1(=O)=O	86
COc1cc(N)c(Cl)cc1C(=O)NC1C2CCN(CC2)C1CN1CCCCC1 (stereo not drawn)	185 to 187
CC(C)n1nc(-c2sc(NC(=O)C3CC3)nc2-c2ccc(F)cc2)ccc1=O	250 to 252
COC(=O)/C=C(\C)CSc1nc(N)cc(Cl)n1	134 to 136
COc1ccc2c(c1)c(C)c(CCCO)n2Cc1ccc(Cl)cc1	118
CCCCOCCOc1ccc(-c2cc(/C=C(\C)C(=O)O)c3c(c2)CCCN3C)cc1	133 to 134
Nc1ccc(OCC(F)(F)F)cc1[N+](=O)[O-]	84 to 85
O=C(OCc1ccnc2ccccc12)ON1C(=O)CCC1=O	94
CCS(=O)c1nc2ccc([N+](=O)[O-])cc2s1 (stereo not drawn)	145 to 149
CC(C)(CO)Oc1ccccc1	91 to 92
C=CCCCC(C#N)(C#N)Cc1ccc(C#N)cc1	91.5
Cc1nc(-c2cc(N)ccc2F)cs1	73 to 75
O=C(Nc1ccc2cc(CN3CCCC3)cnc2c1)N1CCC(c2ccc(F)cc2)CC1	239 to 241
Cc1ccc(CC(C(=O)c2ccccc2)N2CCCCC2)cc1 (stereo not drawn)	71 to 72
CC(=O)OC1CCC2(C)C(=CCC3C2CCC2(C)C(n4nccn4)=C(C=O)CC32)C1 (stereo not drawn)	145 to 148
O=C(CCCCC1CCSS1)n1ccnc1 (stereo not drawn)	37 to 39
